Patent US11197908B2, “Peptoids and methods for attenuating inflammatory response” (THE BOARD OF TRUSTEES OF THE UNIVERSITY OF ARKANSAS, priority 2018, dated 2021)
Where a SMILES comes first, the peptide text is derived from it. [ ]: non-standard residue; d: D form. N(1S-Me-propyl)Gly = CC[C@H](C)NCC(=O)O; Nspe = C[C@H](NCC(=O)O)c1ccccc1; Nlys = NCCCCNCC(=O)O

Columns and labels:
[1] = test system: IL-8; experiment: IL-8 in supernatant of THP-1 macrophages co-incubated with peptoid and LPS (ELISA); format: cell-based, human; settings: 3 days, vs LPS alone
Experimental: THP-1 monocytes were differentiated into macrophages through exposure to phorbol 12-myristate 13-acetate (PMA) for three days prior to experimentation 10. […] Upon differentiation, these cells were then incubated (3 days) with media containing JPT1a (50, 10, or 2 μM) alone or JPT1a (50, 10, or 2 μM) in the presence of low-dose (2 ng/mL) lipopolysaccharide (LPS) as a chronic pro-inflammatory stimulus 11. Treatment with 2 ng/mL LPS alone served as a positive control, while treatment with an equivalent volume of buffer diluted into media served as the vehicle. Cellular supernatant was harvested on day 3 12; these samples were immediately centrifuged at 1200 rpm for 10 min at 25° C. to remove any cells or debris. […] All multi-channel images were converted to TIFF file format via ImageJ64 software for quantitative image analysis using a custom subroutine written in Matlab™ software to obtain the average RAGE expression per volume of cells, and the data generated was assessed for statistical significance using GraphPad Prism 7.0 software 15.
(§1) As shown in FIGS. 2B-2D, THP-1 macrophages were treated with JPT1a alone (white) or in the presence of a chronic low-dose (2 ng/mL) of LPS (grey), for 3 days prior to supernatant harvest and storage. Examination of the supernatant via ELISA determined the concentrations of (FIG. 2B) IL-1β, (FIG. 2C) IL-6, and (FIG. 2D) IL-8. […]

[2] = test system: RAGE; experiment: RAGE upregulation in THP-1 macrophages co-incubated with peptoid and low-dose LPS (confocal imaging); format: cell-based, human; settings: 3 days
Experimental: (§2) THP-1 monocytes were differentiated into macrophages through exposure to phorbol 12-myristate 13-acetate (PMA) for three days prior to experimentation 10. […] Upon differentiation, these cells were then incubated (3 days) with media containing JPT1a (50, 10, or 2 μM) alone or JPT1a (50, 10, or 2 μM) in the presence of low-dose (2 ng/mL) lipopolysaccharide (LPS) as a chronic pro-inflammatory stimulus 11. Treatment with 2 ng/mL LPS alone served as a positive control, while treatment with an equivalent volume of buffer diluted into media served as the vehicle. Cellular supernatant was harvested on day 3 12; these samples were immediately centrifuged at 1200 rpm for 10 min at 25° C. to remove any cells or debris. The top 80% of this volume was subsequently removed and stored at −80° C. for later assessment of cytokines via ELISA. Cells were fixed and stained for RAGE, phalloidin (cytoplasmic marker), and DAPI (nuclear marker) 13. Each channel was imaged with a Zeiss LSM 510 META Confocal Scanning Laser Microscope using a plan-neofluar 40×/1.3 oil DIC immersion objective; three of these multi-channel images were obtained from each slide in each experiment 14. All multi-channel images were converted to TIFF file format via ImageJ64 software for quantitative image analysis using a custom subroutine written in Matlab™ software to obtain the average RAGE expression per volume of cells, and the data generated was assessed for statistical significance using GraphPad Prism 7.0 software 15.
(§3) Images acquired via confocal microscopy were analyzed via custom MATLAB™ subroutine to determine the average quantity of RAGE present within a given volume of cells. Results within each experiment are normalized to the positive control (2 ng/mL LPS alone), indicated by the dashed line at 1. Significance relative to positive control is indicated as ** p<0.01. Error bars indicate SEM, n=4.
as §3, with “1.0.” for “1. Significance relative to positive control is indicated as ** p<0.01.”, “n=2.” for “n=4.”

[3] = test system: IL-1β; experiment: IL-1β expression in previously LPS-stimulated THP1 macrophages (ELISA); format: cell-based, human; settings: 25, 5, 1 μM added after 48 h of 2 ng/mL LPS, additional 24 h
Experimental: (§4) THP-1 monocytes were differentiated as described above 20. Upon differentiation, these cells were then incubated (48 h) with media containing low-dose (2 ng/mL) LPS as a chronic pro-inflammatory stimulus 21. Following incubation, JPT1a or JPT1 was added for final concentrations of 25, 5, and 1 μM 22, and cells were incubated an additional 24 h. Treatment with 2 ng/mL LPS alone served as a positive control, while treatment with an equivalent volume of buffer diluted into media served as the vehicle. Media was collected for later assessment of cytokines via ELISA as described above 23. Cells were fixed and stained for RAGE, phalloidin (cytoplasmic marker), and DAPI (nuclear marker) 24. Each channel was imaged with a Zeiss LSM 510 META Confocal Scanning Laser Microscope using a plan-neofluar 40×/1.3 oil DIC immersion objective; three of these multi-channel images were obtained from each slide in each experiment. 25 All multi-channel images were converted to TIFF file format via ImageJ64 software for quantitative image analysis using a custom subroutine written in Matlab™ software to obtain the average RAGE expression per volume of cells, and the data generated was assessed for statistical significance using GraphPad Prism 7.0 software 26.
(§5) As shown in FIGS. 4B-4D, THP1 macrophages were treated with low-dose LPS at 2 ng/mL. […]

[4] = test system: IL-6; experiment: IL-6 expression in previously LPS-stimulated THP1 macrophages (ELISA); format: cell-based, human; settings: 25, 5, 1 μM added after 48 h of 2 ng/mL LPS, additional 24 h
Experimental: as §4, §5

[5] = biological target: T1, Aβ1-40 (Homo sapiens, UniProt P05067); settings: cited from earlier work
T1 construct: modulate Aβ1-40 aggregation

[6] = test system: IL-6; experiment: IL-6 in supernatant of THP-1 macrophages co-incubated with peptoid and LPS (ELISA); format: cell-based, human; settings: 3 days, vs LPS alone
Experimental: as §2, with “Each channel was imaged with a Zeiss LSM 510 META Confocal Scanning Laser Microscope using a plan-neofluar 40×/1.3 oil DIC immersion objective; three of these multi-channel images were obtained from each slide in each experiment 14.” left out
as §1
as §1, with “5B-5D,” for “2B-2D,”, “JPT1” for “JPT1a”, “5B)” for “2B)”, “5C)” for “2C)”, “5D)” for “2D)”

T1 sequence (P05067 672-711 limits assumed): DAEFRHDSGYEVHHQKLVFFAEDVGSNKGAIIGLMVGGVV

SMILES: CC[C@H](C)N(CC(=O)N(CC(=O)N(CC(=O)N(CC(=O)N(CC(=O)N(CC(=O)N(CC(N)=O)[C@@H](C)c1ccccc1)[C@@H](C)c1ccccc1)[C@@H](C)CC)[C@@H](C)c1ccccc1)[C@@H](C)c1ccccc1)[C@@H](C)CC)C(=O)CNCCCCN [JPT1a] (H-[Nlys][N(1S-Me-propyl)Gly][N(1S-Me-propyl)Gly][Nspe][Nspe][N(1S-Me-propyl)Gly][Nspe][Nspe]-NH2)
- levels of LPS-induced IL-8 ([1]; peptoid 10 μM with 2 ng/mL LPS): significantly reduces
- LPS-induced production of IL-8 ([1]; peptoid 50 μM with 2 ng/mL LPS): significantly attenuates
- upregulation in RAGE expression in the presence of LPS ([2]; peptoid 50, 10 or 2 μM with 2 ng/mL LPS, normalized to LPS alone): reduced in a dose-dependent and significant manner
- expression of RAGE, peptoid alone ([2]; peptoid alone (no LPS), relative to the control): does not provoke significant response or upregulation
- IL-1β production of previously stimulated macrophages [3]: does not affect cytokine production
- IL-6 production of previously stimulated macrophages [4]: does not affect cytokine production
- Aβ1-40 aggregation [5]: capacity to modulate Aβ1-40 aggregation
- levels of LPS-induced IL-6 ([6]; peptoid 10 μM with 2 ng/mL LPS): significantly reduces
- LPS-induced production of IL-6 ([6]; peptoid 50 μM with 2 ng/mL LPS): significantly attenuates
